Source: ChEMBL document CHEMBL1133904, “Stereoselective synthesis and antibacterial evaluation of 4-amido-isothiazolidinone oxides” (Bioorg Med Chem Lett, 2001)
≈ marks a conversion by molar mass, not a printed value.

How the values were obtained:
[1] = test system: Enterobacter cloacae; assay: In vitro antibacterial activity against Enterobacter cloacae; range is 16->1000; format: functional
[2] = test system: Klebsiella pneumoniae; assay: In vitro antibacterial activity against Klebsiella pneumoniae; range is 16->1000; format: functional
[3] = test system: Moraxella catarrhalis; assay: In vitro antibacterial activity against Moraxella catarrhalis; range is 16->1000; format: functional
[4] = biological target: T1, Penicillin-binding protein 2 (Staphylococcus aureus, UniProt Q53729); assay: Inhibition of Penicillin-binding protein 2 (PBP2) from Staphylococcus aureus
T1 sequence (Q53729 whole entry): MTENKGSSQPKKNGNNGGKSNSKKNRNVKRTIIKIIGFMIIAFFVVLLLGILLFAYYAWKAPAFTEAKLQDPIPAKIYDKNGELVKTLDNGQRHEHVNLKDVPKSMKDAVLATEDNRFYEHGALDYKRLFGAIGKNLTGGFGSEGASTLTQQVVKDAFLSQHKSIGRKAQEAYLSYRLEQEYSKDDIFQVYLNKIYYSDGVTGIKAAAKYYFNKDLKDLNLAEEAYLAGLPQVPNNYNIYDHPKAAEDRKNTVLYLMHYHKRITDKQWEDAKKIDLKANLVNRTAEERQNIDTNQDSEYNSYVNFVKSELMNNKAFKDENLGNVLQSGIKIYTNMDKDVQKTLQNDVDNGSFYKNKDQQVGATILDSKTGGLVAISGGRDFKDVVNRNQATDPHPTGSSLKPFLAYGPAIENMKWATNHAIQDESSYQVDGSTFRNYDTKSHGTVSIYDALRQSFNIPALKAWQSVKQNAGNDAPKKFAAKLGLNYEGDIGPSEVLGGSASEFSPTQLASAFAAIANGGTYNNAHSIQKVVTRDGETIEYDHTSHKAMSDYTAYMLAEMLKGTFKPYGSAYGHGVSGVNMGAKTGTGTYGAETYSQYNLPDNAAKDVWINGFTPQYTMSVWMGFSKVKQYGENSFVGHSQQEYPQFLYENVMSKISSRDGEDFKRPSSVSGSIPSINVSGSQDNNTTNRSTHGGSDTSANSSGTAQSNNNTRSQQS

[5] = biological target: T2, Penicillin-binding protein 3 (Staphylococcus aureus, UniProt Q5D1F0); assay: Inhibition of Penicillin-binding protein 3 (PBP3) from Staphylococcus aureus
T2 sequence (Q5D1F0 whole entry): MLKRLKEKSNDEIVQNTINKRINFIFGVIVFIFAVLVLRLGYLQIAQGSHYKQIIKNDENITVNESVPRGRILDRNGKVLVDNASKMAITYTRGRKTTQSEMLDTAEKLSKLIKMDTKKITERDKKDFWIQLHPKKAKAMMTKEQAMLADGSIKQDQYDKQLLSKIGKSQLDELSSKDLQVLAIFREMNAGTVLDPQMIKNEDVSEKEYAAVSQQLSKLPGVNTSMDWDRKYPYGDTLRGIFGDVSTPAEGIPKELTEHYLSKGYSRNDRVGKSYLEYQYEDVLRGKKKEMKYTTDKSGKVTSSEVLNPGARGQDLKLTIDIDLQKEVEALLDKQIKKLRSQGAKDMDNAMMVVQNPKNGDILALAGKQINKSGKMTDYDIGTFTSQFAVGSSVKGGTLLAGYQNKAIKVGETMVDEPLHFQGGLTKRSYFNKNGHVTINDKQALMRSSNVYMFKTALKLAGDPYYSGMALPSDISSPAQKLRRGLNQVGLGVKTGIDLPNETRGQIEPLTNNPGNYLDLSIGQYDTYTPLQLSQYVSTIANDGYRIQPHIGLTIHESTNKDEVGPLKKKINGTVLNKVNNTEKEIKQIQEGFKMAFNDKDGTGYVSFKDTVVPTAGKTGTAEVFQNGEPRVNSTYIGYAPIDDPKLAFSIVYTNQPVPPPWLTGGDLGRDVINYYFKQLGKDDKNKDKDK

[6] = biological target: T3, Penicillin-binding protein 1 (Staphylococcus aureus, UniProt Q53725); assay: Inhibition of Penicillin-binding protein 1 (PBP1) from Staphylococcus aureus
T3 sequence (Q53725 whole entry): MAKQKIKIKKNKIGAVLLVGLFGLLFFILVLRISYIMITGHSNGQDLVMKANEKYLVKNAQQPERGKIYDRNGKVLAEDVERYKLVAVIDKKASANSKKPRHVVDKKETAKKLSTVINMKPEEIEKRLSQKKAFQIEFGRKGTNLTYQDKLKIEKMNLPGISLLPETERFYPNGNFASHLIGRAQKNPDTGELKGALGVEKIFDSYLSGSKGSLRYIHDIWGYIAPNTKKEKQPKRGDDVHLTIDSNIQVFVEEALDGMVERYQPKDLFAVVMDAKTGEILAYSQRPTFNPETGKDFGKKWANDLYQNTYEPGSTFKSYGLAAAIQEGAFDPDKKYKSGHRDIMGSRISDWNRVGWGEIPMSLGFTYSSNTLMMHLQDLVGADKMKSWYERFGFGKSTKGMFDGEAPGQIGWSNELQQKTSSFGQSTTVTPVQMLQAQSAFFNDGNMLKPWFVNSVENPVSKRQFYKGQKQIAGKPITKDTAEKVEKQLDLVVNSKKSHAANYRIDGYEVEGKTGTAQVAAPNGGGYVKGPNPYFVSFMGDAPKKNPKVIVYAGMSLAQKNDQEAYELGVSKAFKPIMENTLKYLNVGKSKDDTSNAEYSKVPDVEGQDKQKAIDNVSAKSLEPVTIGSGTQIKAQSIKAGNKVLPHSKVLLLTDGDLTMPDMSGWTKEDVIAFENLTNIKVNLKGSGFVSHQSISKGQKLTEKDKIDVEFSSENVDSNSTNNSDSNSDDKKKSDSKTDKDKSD

[7] = Half life period was measured at pH 7.4 in phosphate buffer; format: ADME
[8] = test system: Enterobacter cloacae; assay: In vitro antibacterial activity against Enterobacter cloacae; format: functional
[9] = test system: Klebsiella pneumoniae; assay: In vitro antibacterial activity against Klebsiella pneumoniae; format: functional
[10] = test system: Moraxella catarrhalis; assay: In vitro antibacterial activity against Moraxella catarrhalis; format: functional
[11] = test system: Enterobacter cloacae; assay: In vitro antibacterial activity against Enterobacter cloacae; range is 31.3->1000; format: functional
[12] = test system: Klebsiella pneumoniae; assay: In vitro antibacterial activity against Klebsiella pneumoniae; range is 31.3->1000; format: functional
[13] = test system: Moraxella catarrhalis; assay: In vitro antibacterial activity against Moraxella catarrhalis; range is 31.3->1000; format: functional
[14] = test system: Enterobacter cloacae; assay: In vitro antibacterial activity against Enterobacter cloacae; range is 125->1000; format: functional
[15] = test system: Klebsiella pneumoniae; assay: In vitro antibacterial activity against Klebsiella pneumoniae; range is 125->1000; format: functional
[16] = test system: Moraxella catarrhalis; assay: In vitro antibacterial activity against Moraxella catarrhalis; range is 125->1000; format: functional
[17] = test system: Klebsiella pneumoniae; assay: In vitro antibacterial activity against Klebsiella pneumoniae; range is 2->32; format: functional
[18] = test system: Staphylococcus aureus; assay: In vitro antibacterial activity against Staphylococcus aureus; range is 2->32; format: functional
[19] = test system: Streptococcus pneumoniae; assay: In vitro antibacterial activity against Streptococcus pneumoniae; range is 2->32; format: functional
[20] = test system: Klebsiella pneumoniae; assay: In vitro antibacterial activity against Klebsiella pneumoniae; range is 62.5->1000; format: functional
[21] = test system: Staphylococcus aureus; assay: In vitro antibacterial activity against Staphylococcus aureus; range is 62.5->1000; format: functional
[22] = test system: Streptococcus pneumoniae; assay: In vitro antibacterial activity against Streptococcus pneumoniae; range is 62.5->1000; format: functional
[23] = test system: Klebsiella pneumoniae; assay: In vitro antibacterial activity against Klebsiella pneumoniae; range is 15.6->1000; format: functional
[24] = test system: Moraxella catarrhalis; assay: In vitro antibacterial activity against Moraxella catarrhalis; range is 15.6->1000; format: functional
[25] = test system: Enterobacter cloacae; assay: In vitro antibacterial activity against Enterobacter cloacae; range is 15.6->1000; format: functional
[26] = test system: Klebsiella pneumoniae; assay: In vitro antibacterial activity against Klebsiella pneumoniae; range is 1.6->100; format: functional
[27] = test system: Staphylococcus aureus; assay: In vitro antibacterial activity against Staphylococcus aureus; range is 1.6->100; format: functional
[28] = test system: Streptococcus pneumoniae; assay: In vitro antibacterial activity against Streptococcus pneumoniae; range is 1.6->100; format: functional
[29] = test system: Enterobacter cloacae; assay: In vitro antibacterial activity against Enterobacter cloacae; range is 62.6->1000; format: functional
[30] = test system: Klebsiella pneumoniae; assay: In vitro antibacterial activity against Klebsiella pneumoniae; range is 62.6->1000; format: functional
[31] = test system: Moraxella catarrhalis; assay: In vitro antibacterial activity against Moraxella catarrhalis; range is 62.6->1000; format: functional

SMILES | IC50 [4] | IC50 [5] | IC50 [6] | half-life [7] | MIC [8] | MIC [9] | MIC [10] | further results
CC(C)[C@@H](C(=O)O)N1C(=O)C(NC(=O)COc2ccccc2)CS1(=O)=O (stereo partly specified) | > 650 µM | > 650 µM | > 650 µM | 22 h |  |  |  | MIC [1]: 16 µg/mL (≈ 41.6 µM); MIC [2]: 16 µg/mL (≈ 41.6 µM); MIC [3]: 16 µg/mL (≈ 41.6 µM)
CC(C)[C@H](C(=O)O)N1C(=O)[C@@H](NC(=O)COc2ccccc2)C[S+]1[O-] (stereo partly specified) | > 679 µM | > 679 µM | > 679 µM | < 3.3 h | > 1000 µg/mL | > 1000 µg/mL | > 1000 µg/mL | 
CC(C(=O)OC(C)(C)C)N1C(=O)C(NC(=O)Oc2ccc(Cl)cc2)CS1(=O)=O (stereo unspecified) | > 578 µM | > 578 µM | > 578 µM |  |  |  |  | MIC [11]: 31.3 µg/mL (≈ 72.3 µM); MIC [12]: 31.3 µg/mL (≈ 72.3 µM); MIC [13]: 31.3 µg/mL (≈ 72.3 µM)
CC(C(=O)O)N1C(=O)C(NC(=O)Oc2ccc(Cl)cc2)CS1(=O)=O (stereo unspecified) | > 664 µM | > 664 µM | > 664 µM | 15.7 h |  |  |  | MIC [14]: 125 µg/mL (≈ 332 µM); MIC [15]: 125 µg/mL (≈ 332 µM); MIC [16]: 125 µg/mL (≈ 332 µM)
CC(C)[C@H](C(=O)O)N1C[C@H](NC(=O)COc2ccccc2)C1=O | > 780 µM | > 780 µM | > 780 µM | > 48 h |  |  |  | MIC [17]: 2 µg/mL (≈ 6.24 µM); MIC [18]: 2 µg/mL (≈ 6.24 µM); MIC [19]: 2 µg/mL (≈ 6.24 µM)
CO/N=C(/C(=O)NC1CS(=O)(=O)N(CC(=O)O)C1=O)c1csc(N)n1.O=C(O)C(F)(F)F (stereo unspecified) | > 495 µM | > 495 µM | > 495 µM | 5.6 h | > 64 µg/mL | > 64 µg/mL | > 64 µg/mL | 
O=C(O)CN1C(=O)C(NC(=O)COc2ccccc2)CS1(=O)=O (stereo unspecified) | > 730 µM | > 730 µM | > 730 µM | 11.9 h | > 100 µg/mL | > 100 µg/mL | > 100 µg/mL | 
CC(C)[C@@H](C(=O)O)N1C(=O)[C@@H](NC(=O)COc2ccccc2)C[S+]1[O-] (stereo partly specified) | > 679 µM | > 679 µM | > 679 µM | < 1.4 h | > 1000 µg/mL | > 1000 µg/mL | > 1000 µg/mL | 
CCCCNOS(=O)(=O)N1C(=O)[C@@H](NC(=O)COc2ccc(Cl)cc2)CS1(=O)=O | > 532 µM | > 532 µM | > 532 µM | < 0.4 h | > 64 µg/mL | > 64 µg/mL | > 64 µg/mL | 
O=C(O)CN1C[C@H](NC(=O)COc2ccccc2)C1=O | > 898 µM | > 898 µM | > 898 µM | > 32 h |  |  |  | MIC [20]: 62.5 µg/mL (≈ 225 µM); MIC [21]: 62.5 µg/mL (≈ 225 µM); MIC [22]: 62.5 µg/mL (≈ 225 µM)
O=C(CN1C(=O)C(NC(=O)Oc2ccc(Cl)cc2)CS1(=O)=O)OCc1ccccc1 (stereo unspecified) | > 552 µM | > 552 µM | > 552 µM | 5.1 h |  |  |  | MIC [23]: 15.6 µg/mL (≈ 34.4 µM); MIC [24]: 15.6 µg/mL (≈ 34.4 µM); MIC [25]: 15.6 µg/mL (≈ 34.4 µM)
CCCCNOS(=O)(=O)N1C[C@H](NC(=O)Cc2ccccc2)C1=O | > 703 µM | > 703 µM | > 703 µM |  |  |  |  | MIC [26]: 1.6 µg/mL (≈ 4.5 µM); MIC [27]: 1.6 µg/mL (≈ 4.5 µM); MIC [28]: 1.6 µg/mL (≈ 4.5 µM)
CC(C)[C@H](C(=O)OCc1ccccc1)N1C(=O)[C@@H](NC(=O)COc2ccccc2)C[S+]1[O-] (stereo partly specified) | > 545 µM | > 545 µM | > 545 µM | < 0.5 h |  |  |  | MIC [29]: 62.6 µg/mL (≈ 137 µM); MIC [30]: 62.6 µg/mL (≈ 137 µM); MIC [31]: 62.6 µg/mL (≈ 137 µM)
CC(C)C(C(=O)OC(C)(C)C)N1C(=O)C(NC(=O)OCc2ccccc2)CS1(=O)=O (stereo unspecified) | > 568 µM | > 568 µM | > 568 µM | 15.8 h |  |  |  | MIC [11]: 31.3 µg/mL (≈ 71.1 µM); MIC [12]: 31.3 µg/mL (≈ 71.1 µM); MIC [13]: 31.3 µg/mL (≈ 71.1 µM)
